Literature values as cited in patent publication US20210145778A1, “Stable Liquid Compositions of Melphalan” (Orbicular Pharmaceutical Technologies Pvt. Ltd., priority 2018, published 2021).

N[C@@H](Cc1ccc(N(CCCl)CCCl)cc1)C(=O)O [Melphalan, L-phenylalanine mustard]
Stability in aqueous solutions: poor stability
